Measurements published in patent publication US20090274662A1, “Methods And Kits For The Treatment Of Inflammatory Bowel Disorder Conditions” (priority 2008, published 2009).

Conditions: male, human, in vivo
From the text: The patient is prescribed a pharmaceutical composition to be taken twice each week. Each unit dose of the pharmaceutical composition comprises 7200 milligrams of delayed-release mesalamine.

Nc1ccc(O)c(C(=O)O)c1 [delayed-release mesalamine, 5-amino-2-hydroxybenzoic acid]
amount of delayed-release mesalamine absorbed into the mucosa and colonic wall: equivalent to that of 2400 milligrams mesalamine taken once-daily
